Laboratory results taken from patent US10450328B2, “Crystals of thiadiazole derivative DPP-IV inhibitors and uses thereof” (CHIA TAI TIANQING PHARMACEUTICAL GROUP CO., LTD., priority 2015, dated 2019).

Legend:
DPP-IV = DPP-IV (Homo sapiens, UniProt P27487); conditions: result in words; cited from earlier work
[1] = result in words; cited from earlier work
[2] = Stability test: experiments on influencing factors (light irradiation, high temperature, high humidity); type: physicochemical; conditions: for stability: result in words
Excerpt: Suitable amounts of the crystalline Form A obtained in Example 2 and the crystalline Form B obtained in Example 3 were taken to carry out experiments on influencing factors according to the methods described in the Chinese Pharmacopoeia, 2010 edition, Part II, Appendix.

Powder fluidity = type: physicochemical; conditions: result in words
[3] = High-humidity Test 92.5% RH, 5 days
[4] = High-humidity Test 92.5% RH, 10 days
[5] = High-temperature Test 40° C., 5 days
[6] = High-temperature Test 40° C., 10 days
[7] = High-temperature Test 60° C., 5 days, 60 °C
[8] = High-temperature Test 60° C., 10 days, 60 °C
[9] = Light Irradiation Test 4500Lux, 5 days
[10] = Light Irradiation Test 4500Lux, 10 days
[11] = High-temperature Test 60° C., 5 days

Sequence of DPP-IV (P27487 whole entry, species assumed): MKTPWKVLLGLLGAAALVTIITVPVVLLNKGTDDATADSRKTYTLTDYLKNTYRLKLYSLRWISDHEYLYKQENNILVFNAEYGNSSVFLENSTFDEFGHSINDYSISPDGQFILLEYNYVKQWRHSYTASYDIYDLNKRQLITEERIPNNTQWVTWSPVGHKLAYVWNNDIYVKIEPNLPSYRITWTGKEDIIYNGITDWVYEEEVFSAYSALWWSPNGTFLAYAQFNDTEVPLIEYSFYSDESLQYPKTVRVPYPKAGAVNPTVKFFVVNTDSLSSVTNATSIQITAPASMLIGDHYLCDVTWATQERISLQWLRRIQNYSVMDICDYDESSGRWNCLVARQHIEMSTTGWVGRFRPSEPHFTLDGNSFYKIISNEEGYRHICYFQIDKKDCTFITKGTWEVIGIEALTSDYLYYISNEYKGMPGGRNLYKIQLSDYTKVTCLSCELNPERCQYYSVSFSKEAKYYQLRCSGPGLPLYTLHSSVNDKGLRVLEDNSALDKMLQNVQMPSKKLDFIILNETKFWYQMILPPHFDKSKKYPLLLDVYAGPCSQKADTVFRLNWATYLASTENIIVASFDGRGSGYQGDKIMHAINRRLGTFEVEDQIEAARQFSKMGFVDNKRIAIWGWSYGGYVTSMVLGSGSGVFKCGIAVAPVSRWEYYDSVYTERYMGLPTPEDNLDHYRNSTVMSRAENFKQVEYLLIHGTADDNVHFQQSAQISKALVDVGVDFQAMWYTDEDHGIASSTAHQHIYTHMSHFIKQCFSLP

Relative Substances Main Peak % ([2]; 0 day) [%]	Relative Substances Maximum Single Impurity % ([2]; 0 day) [%]	Relative Substances Main Peak % [2, 3] [%]	Relative Substances Maximum Single Impurity % [2, 3] [%]	Relative Substances Main Peak % [2, 4] [%]	Relative Substances Maximum Single Impurity % [2, 4] [%]	Relative Substances Main Peak % [2, 5] [%]	Relative Substances Maximum Single Impurity % [2, 5] [%]	Relative Substances Main Peak % [2, 6] [%]	Relative Substances Maximum Single Impurity % [2, 6] [%]	Relative Substances Main Peak % [2, 9] [%]	Relative Substances Maximum Single Impurity % [2, 9] [%]	Relative Substances Main Peak % [2, 10] [%]	Relative Substances Maximum Single Impurity % [2, 10] [%]	stability [2]	powder fluidity (Powder fluidity)	SMILES	also measured
–	–	–	–	–	–	–	–	–	–	–	–	–	–	–	–	CC#CCn1c(N2CCC[C@@H](N)C2)nc2c1c(=O)n(Cc1ccc3nsnc3n1)c(=O)n2C [Compound 7]	inhibitory activity against DPP-IV (DPP-IV): very good inhibitory activity; half-life in vivo [1]: suitable half-life in vivo; metabolic level in vivo [1]: very good metabolic level in vivo
99.3	0.18	99.36	0.17	99.4	0.16	99.38	0.17	99.44	0.15	98.98	0.26	98.2	0.58	excellent stability	good powder fluidity	CC#CCn1c(N2CCC[C@@H](N)C2)nc2c1c(=O)n(Cc1ccc3nsnc3n1)c(=O)n2C [crystalline Form B]	Relative Substances Main Peak % [2, 7]: 99.33%; Relative Substances Maximum Single Impurity % [2, 7]: 0.2%; Relative Substances Main Peak % [2, 8]: 99.12%; Relative Substances Maximum Single Impurity % [2, 8]: 0.24%
98.78	0.56	98.79	0.61	98.84	0.61	98.72	0.60	98.42	0.61	98.09	0.51	96.21	0.70	excellent stability	good powder fluidity	CC#CCn1c(N2CCC[C@@H](N)C2)nc2c1c(=O)n(Cc1ccc3nsnc3n1)c(=O)n2C [crystalline Form A]	Relative Substances Main Peak % [2, 11]: 98.72%; Relative Substances Maximum Single Impurity % [2, 11]: 0.60%; Relative Substances Maximum Single Impurity % ([2]; High-temperature Test 60° C., 10 days): 0.61%; Relative Substances Main Peak % ([2]; High-temperature Test 60° C., 10 days, 60 °C high-temperature test): 98.74%
